What all share (test): relative viability (nuclei count vs DMSO), 5 days (fraction); higher = more cells survive
Compound in the experiment “Lapatinib + Bortezomib”: CS(=O)(=O)CCNCc1ccc(-c2ccc3ncnc(Nc4ccc(OCc5cccc(F)c5)c(Cl)c4)c3c2)o1 [Lapatinib] + CC(C)C[C@H](NC(=O)[C@H](Cc1ccccc1)NC(=O)c1cnccn1)B(O)O [Bortezomib] (partner 0.002 µM)
In short, it runs like this: (§1)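 Relative viability divides the nuclei count in treated wells by that in vehicle wells. Lung cancer cell lines were seeded in 1536-well plates, dosed by pin tool the next day, and fixed and stained after 5 days in one step with final 0.05% Triton X-100, 1% formaldehyde and 1 ug/ml Hoechst. Dosing was a single drug or a fixed anchor-drug dose plus five library-drug doses (not always all listed) in √10 steps, and values are medians of duplicate plates imaged at 4×.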

Compound in the experiment “Wnt-C59 + OSI-027”: CC1=NC=CC(=C1)C2=CC=C(C=C2)CC(=O)NC3=CC=C(C=C3)C4=CN=CC=C4 [Wnt-C59] + COc1cccc2cc(-c3nc([C@H]4CC[C@H](C(=O)O)CC4)n4ncnc(N)c34)[nH]c12 [OSI-027] (partner 0.5 µM)
In short, it runs like this:
as §1

Compound in the experiment “Wnt-C59 + Alpelisib”: CC1=NC=CC(=C1)C2=CC=C(C=C2)CC(=O)NC3=CC=C(C=C3)C4=CN=CC=C4 [Wnt-C59] + Cc1nc(NC(=O)N2CCC[C@H]2C(N)=O)sc1-c1ccnc(C(C)(C)C(F)(F)F)c1 [Alpelisib] (partner 2 µM)
In short, it runs like this: as §1

Compound in the experiment “Lapatinib + Decitabine”: CS(=O)(=O)CCNCc1ccc(-c2ccc3ncnc(Nc4ccc(OCc5cccc(F)c5)c(Cl)c4)c3c2)o1 [Lapatinib] + Nc1ncn([C@H]2C[C@H](O)[C@@H](CO)O2)c(=O)n1 [Decitabine] (partner 2 µM)
In short, it runs like this:
as §1

UMC-11: the relative viability is 0.838 with Lapatinib + Bortezomib (first compound 0.02 µM); 0.705 with Lapatinib + Bortezomib (first compound 0.06325 µM); 0.852 with Lapatinib + Bortezomib (first compound 0.2 µM); 0.798 in the experiment with Lapatinib + Bortezomib (first compound 0.6325 µM); 0.665 with Lapatinib + Bortezomib (first compound 2 µM); 0.464 with Wnt-C59 + OSI-027 (first compound 0.001 µM). Moreover, the relative viability came out at 0.495 with Wnt-C59 + OSI-027 (first compound 0.01 µM); 0.477 with Wnt-C59 + OSI-027 (first compound 0.03162 µM); 0.462 with Wnt-C59 + OSI-027 (first compound 0.1 µM); 1.08 in the experiment with Wnt-C59 + Alpelisib (first compound 0.001 µM); 0.978 with Wnt-C59 + Alpelisib (first compound 0.01 µM); 1.07 in the experiment with Wnt-C59 + Alpelisib (first compound 0.03162 µM). For the same cell line, the relative viability came out at 1.01 in the experiment with Wnt-C59 + Alpelisib (first compound 0.1 µM); 0.493 in the experiment with Lapatinib + Decitabine (first compound 0.02 µM); 0.541 in the experiment with Lapatinib + Decitabine (first compound 0.06325 µM); 0.627 in the experiment with Lapatinib + Decitabine (first compound 0.2 µM); 0.518 with Lapatinib + Decitabine (first compound 0.6325 µM); 0.604 with Lapatinib + Decitabine (first compound 2 µM).

The values above are taken from the supplement of paper PMC10307832.
